# Results reported in US11401286B2 (Tetra Discovery Partners, LLC, priority 2012, dated 2022).
# Counter-ions that a name gives are not always drawn. Like-named read-outs stand apart in the source and are kept apart here.
# Biological target: PDE4D7 (Homo sapiens (Human), UniProt Q08499)
# [1] = read-out: PDE4D7 IC50, PDE4D7 without asterisk
# Chain of PDE4D7 (Q08499 other isoform, or with tags, fused parts or gaps): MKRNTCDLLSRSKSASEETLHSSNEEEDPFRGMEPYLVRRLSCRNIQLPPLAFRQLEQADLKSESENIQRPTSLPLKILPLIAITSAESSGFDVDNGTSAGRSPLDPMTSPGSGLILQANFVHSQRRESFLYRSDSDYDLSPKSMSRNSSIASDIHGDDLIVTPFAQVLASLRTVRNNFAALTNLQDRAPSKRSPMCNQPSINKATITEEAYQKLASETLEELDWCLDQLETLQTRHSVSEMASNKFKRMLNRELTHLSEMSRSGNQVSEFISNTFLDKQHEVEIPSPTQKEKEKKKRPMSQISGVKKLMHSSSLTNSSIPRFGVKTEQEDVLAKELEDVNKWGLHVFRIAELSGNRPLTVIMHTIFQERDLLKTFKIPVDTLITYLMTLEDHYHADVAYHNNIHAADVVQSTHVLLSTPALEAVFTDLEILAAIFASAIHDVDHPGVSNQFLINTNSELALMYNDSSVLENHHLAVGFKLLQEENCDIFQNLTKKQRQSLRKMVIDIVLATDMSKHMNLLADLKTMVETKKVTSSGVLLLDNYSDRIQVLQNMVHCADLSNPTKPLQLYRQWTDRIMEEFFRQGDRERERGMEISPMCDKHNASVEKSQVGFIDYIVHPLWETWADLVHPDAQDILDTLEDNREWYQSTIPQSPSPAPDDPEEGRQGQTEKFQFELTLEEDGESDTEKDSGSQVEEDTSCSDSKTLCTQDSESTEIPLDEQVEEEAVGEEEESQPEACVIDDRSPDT
Compound,IC50 [1] [µM],also measured
"OCc1ccc(Nc2cc(-c3cccc(Cl)c3)nc3c2CCC3)cc1 [Example 88, (4-((2-(3-Chlorophenyl)-6,7-dihydro-5H-cyclopenta[b]pyridin-4-yl)amino)phenyl)methanol]",> 1,
"NC(=O)Cc1ccc(Nc2nc(-c3ccc(Cl)s3)nc3c2CCC3)cc1 [Example 20, 2-[4-[[2-(5-chloro-2-thienyl)-6,7-dihydro-5H-cyclopenta[d]pyrimidin-4-yl]amino]phenyl]acetamide]",< 1,
"CN(C)CCc1ccc(Nc2nc(-c3cccc(Cl)c3)nc3c2CCC3)cc1 [Example 169, 2-(3-Chlorophenyl)-N-(4-(2-(dimethylamino)ethyl)phenyl)-6,7-dihydro-5H-cyclopenta[d]pyrimidin-4-amine hydrochloride]",> 1,
"OB1OCc2cc(Nc3nc(-c4ccc(Cl)s4)nc4c3CCC4)ccc21 [Example 293, 2-(5-Chloro-2-thienyl)-N-(1-hydroxy-3H-2,1-benzoxaborol-5-yl)-6,7-dihydro-5H-cyclopenta[d]pyrimidin-4-amine]",< 1,
"C[C@@H]1CN(c2cc(Nc3ccc(CC(N)=O)cc3)c3c(n2)CCC3)CCN1 [Example 255, (R)-2-(4-((2-(3-Methylpiperazin-1-yl)-6,7-dihydro-5H-cyclopenta[b]pyridin-4-yl)amino)phenyl)acetamide hydrochloride]",,IC50 (read-out: PDE4D7 IC50): > 1 µM
"CCc1c(C)nc(-c2ccc(Cl)s2)nc1Nc1ccc(Cn2cccn2)cc1 [Example 299, 2-(5-Chloro-2-thienyl)-5-ethyl-6-methyl-N-[4-(pyrazol-1-ylmethyl)phenyl]pyrimidin-4-amine]",> 1,
"CCCNC(=O)Cc1ccc(Cc2cc(CC)nc(-c3cccc(Cl)c3)n2)cc1 [Example 193, 2-(4-((2-(3-Chlorophenyl)-6-ethylpyrimidin-4-yl)methyl)phenyl)-N-propylacetamide]",,IC50: > 1 µM
"Clc1cccc(-c2cc(Nc3ccc(Cc4ncco4)cc3)c3c(n2)CCC3)c1 [Example 114, 2-(3-Chlorophenyl)-N-(4-(oxazol-2-ylmethyl)phenyl)-6,7-dihydro-5H-cyclopenta[b]pyridin-4-amine hydrochloride]",> 1,
"CCCN(C)C(=O)Cc1ccc(Cc2cc(CC)nc(-c3cccc(Cl)c3)n2)cc1 [Example 194, 2-(4-((2-(3-Chlorophenyl)-6-ethylpyrimidin-4-yl)methyl)phenyl)-N-methyl-N-propylacetamide]",< 1,
"OB1OCc2cc(Nc3nc(-c4ccc(Cl)cc4)nc4c3CCC4)ccc21 [Example 295, 2-(4-Chlorophenyl)-N-(1-hydroxy-3H-2,1-benzoxaborol-5-yl)-6,7-dihydro-5H-cyclopenta[d]pyrimidin-4-amine]",> 1,
"NC(=O)Cc1ccc(S(=O)(=O)c2cc(-c3cccc(Cl)c3)nc3c2CCC3)cc1 [Example 267, 2-(4-((2-(3-chlorophenyl)-6,7-dihydro-5H-cyclopenta[b]pyridin-4-yl)sulfonyl)phenyl)acetamide]",,IC50 (read-out: PDE4D7 IC50): > 1 µM
"O=C(O)CCc1ccc(Nc2nc(-c3ccc(Cl)s3)nc3c2CCC3)cc1 [Example 15, 3-[4-[[2-(5-Chloro-2-thienyl)-6,7-dihydro-5H-cyclopenta[d]pyrimidin-4-yl]amino]phenyl]propanoic acid]",> 1,
"COC(=O)Cc1ccc(Nc2cc(-c3cccc(Cl)c3)nc3c2CCC3)cn1 [Example 89, Methyl 2-(5-((2-(3-chlorophenyl)-6,7-dihydro-5H-cyclopenta[b]pyridin-4-yl)amino)pyridin-2-yl)acetate hydrochloride]",,IC50 (read-out: PDE4D7 IC50): > 1 µM
"Clc1cccc(-c2nc3c(c(Nc4ccc(Cc5ncco5)cc4)n2)CCC3)c1 [Example 179, 2-(3-Chlorophenyl)-N-(4-(oxazol-2-ylmethyl)phenyl)-6,7-dihydro-5H-cyclopenta[d]pyrimidin-4-amine]",> 1,
"OCCc1ccc(Nc2cc(-c3cc(Cl)ccc3Cl)nc3c2CCC3)cc1 [Example 156, 2-(4-((2-(2,5-Dichlorophenyl)-6,7-dihydro-5H-cyclopenta[b]pyridin-4-yl)amino)phenyl)ethanol hydrochloride]",> 1,
"CC(C)(C(N)=O)c1ccc(Cc2cc(-c3cccc(Cl)c3)nc3c2CCC3)cc1 [Example 127, 2-(4-((2-(3-Chlorophenyl)-6,7-dihydro-5H-cyclopenta[b]pyridin-4-yl)methyl)phenyl)-2-methylpropanamide hydrochloride]",> 1,
"CCc1nc(Nc2ccc(CCCO)cc2)nc(-c2cccc(Cl)c2)n1 [Example 81, 3-(4-((4-(3-Chlorophenyl)-6-ethyl-1,3,5-triazin-2-yl)amino)phenyl)propan-1-ol]",,IC50 (read-out: PDE4D7 IC50): < 1 µM
"CCc1cc(/N=c2\[nH]cc(CC(N)=O)o2)nc(-c2cccc(Cl)c2)n1 [Example 192, 2-(2-((2-(3-Chlorophenyl)-6-ethylpyrimidin-4-yl)imino)-2,3-dihydrooxazol-5-yl)acetamide]",> 1,
"NC(=O)Cc1ccc(Nc2nc(-c3cccc(Cl)c3)nc3c2CCC3)cc1 [Example 21, 2-[4-[[2-(3-chlorophenyl)-6,7-dihydro-5H-cyclopenta[d]pyrimidin-4-yl]amino]phenyl]acetamide]",> 1,
"OCCc1ccc(Nc2cc(N3CCNCC3)nc3c2CCC3)cc1 [Example 238, 2-(4-((2-(Piperazin-1-yl)-6,7-dihydro-5H-cyclopenta[b]pyridin-4-yl)amino)phenyl)ethanol hydrochloride]",> 1,
"CCc1cc(Cc2ccc(CCO)cc2)nc(-c2cccc(Cl)c2)n1 [Example 67, 2-(4-((2-(3-Chlorophenyl)-6-ethylpyrimidin-4-yl)methyl)phenyl)ethanol]",,IC50 (read-out: PDE4D7 IC50): < 1 µM

# More lines, main results first:
IC50 [1] [µM],Compound,also measured
> 1,"NC(=O)Cc1ccc(Cc2cc(C(F)(F)F)nc(OC3CCCC3)n2)cc1 [Example 201, 2-(4-((2-(Cyclopentyloxy)-6-(trifluoromethyl)pyrimidin-4-yl)methyl)phenyl)acetamide]",
> 1,"NC(=O)Cc1ccc(Nc2cc(C3=CCCC3)nc3c2CCC3)cc1 [Example 246, 2-(4-((2-(Cyclopent-1-en-1-yl)-6,7-dihydro-5H-cyclopenta[b]pyridin-4-yl)amino)phenyl)acetamide hydrochloride]",
< 1,"NC(=O)Cc1ccc(Nc2nc(C3CCCC3)nc3c2S(=O)(=O)CCC3)cc1 [Example 286, 2-(4-((2-cyclopentyl-5,5-dioxido-7,8-dihydro-6H-thiopyrano[3,2-d]pyrimidin-4-yl)amino)phenyl)acetamide]",
> 1,"NC(=O)Cc1ccc(Nc2cc(-c3ccsc3)nc3c2CCC3)cc1 [Example 244, 2-(4-((2-(Thiophen-3-yl)-6,7-dihydro-5H-cyclopenta[b]pyridin-4-yl)amino)phenyl)acetamide]",
> 1,"CCc1cc(Cc2ccc(CCO)cc2)nc(C2CCCC2)n1 [Example 225, 2-(4-((2-Cyclopentyl-6-ethylpyrimidin-4-yl)methyl)phenyl)ethanol]",
< 1,"OCCc1ccc(Nc2nc(-c3cccc(Cl)c3)nc3c2CCCC3)cc1 [Example 235, 2-(4-((2-(3-Chlorophenyl)-5,6,7,8-tetrahydroquinazolin-4-yl)amino)phenyl)ethanol]",
> 1,"CCCNC(=O)Cc1ccc(Nc2nc(-c3cccc(Cl)c3)nc3c2S(=O)(=O)CCC3)cc1 [Example 276, 2-(4-((2-(3-Chlorophenyl)-5,5-dioxido-7,8-dihydro-6H-thiopyrano[3,2-d]pyrimidin-4-yl)amino)phenyl)-N-propylacetamide]",
< 1,"NC(=O)Cc1ccc(Nc2cc(C(F)(F)F)nc(C3CCCC3)n2)cc1 [Example 228, 2-(4-((2-Cyclopentyl-6-(trifluoromethyl)pyrimidin-4-yl)amino)phenyl)acetamide]",
> 1,"NC(=O)CCCc1ccc(Nc2cc(-c3cccc(Cl)c3)nc3c2CCC3)cc1 [Example 130, 4-(4-((2-(3-Chlorophenyl)-6,7-dihydro-5H-cyclopenta[b]pyridin-4-yl)amino)phenyl)butanamide hydrochloride]",
> 1,"NC(=O)Cc1ccc(Nc2cc(C(F)(F)F)nc(OC3CCCC3)n2)cc1 [Example 198, 2-(4-((2-(Cyclopentyloxy)-6-(trifluoromethyl)pyrimidin-4-yl)amino)phenyl)acetamide]",
> 1,"FC(F)(F)Cc1ccc(Nc2cc(-c3cccc(Cl)c3)nc3c2CCC3)cc1 [Example 110, 2-(3-Chlorophenyl)-N-(4-(2,2,2-trifluoroethyl)phenyl)-6,7-dihydro-5H-cyclopenta[b]pyridin-4-amine hydrochloride]",
> 1,"O=C(O)Cc1ccc(Cc2cc(C(F)(F)F)nc(C3CCCC3)n2)cc1 [Example 229, 2-(4-((2-Cyclopentyl-6-(trifluoromethyl)pyrimidin-4-yl)methyl)phenyl)acetic acid]",
< 1,"NC(=O)Cc1ccc(Cc2nc(-c3cccc(Cl)c3)nc3c2S(=O)(=O)CCC3)cc1 [Example 277, 2-(4-((2-(3-Chlorophenyl)-5,5-dioxido-7,8-dihydro-6H-thiopyrano[3,2-d]pyrimidin-4-yl)methyl)phenyl)acetamide]",
> 1,"NC(=O)Cc1ccc(C(O)c2cc(-c3cccc(Cl)c3)nc3c2CCC3)cc1 (stereo not drawn) [Example 262, 2-(4-((2-(3-Chlorophenyl)-6,7-dihydro-5H-cyclopenta[b]pyridin-4-yl)(hydroxy)methyl)phenyl)acetamide hydrochloride]",
< 1,"OCCc1ccc(Nc2cc(C(F)(F)F)nc(C3CCCC3)n2)cc1 [Example 227, 2-(4-((2-Cyclopentyl-6-(trifluoromethyl)pyrimidin-4-yl)amino)phenyl)ethanol]",
> 1,"CC(C)Oc1cc(Nc2ccc(CC(N)=O)cc2)c2c(n1)CCC2 [Example 261, 2-(4-((2-Isopropoxy-6,7-dihydro-5H-cyclopenta[b]pyridin-4-yl)amino)phenyl)acetamide hydrochloride]",
> 1,"O=C(O)Cc1ccc(Nc2cc(C(F)(F)F)nc(-c3ccc(Cl)s3)n2)cc1 [Example 296, 2-[4-[[2-(5-Chloro-2-thienyl)-6-(trifluoromethyl)pyrimidin-4-yl]amino]phenyl]acetic acid]",
> 1,"Clc1ccc(-c2nc(Nc3ccc(Cc4nnn[nH]4)cc3)cc(C3CC3)n2)s1 [Example 298, 2-(5-Chloro-2-thienyl)-6-cyclopropyl-N-[4-(1H-tetrazol-5-ylmethyl)phenyl]pyrimidin-4-amine]",
